# Test system: D5 Th1 T cell line
# Assay: nucleic acid expression profile of D5 Th1 T cell line stimulated with 500 nM ionomycin, 1 μM CsA plus ionomycin or 20 nM PMA plus ionomycin; 19K chip, second replicate
# Assay type: cell-based, murine
# Design: expression level of Msa.15983.0_f_at / expression level of Msa.1669.0_f_at / expression level of Msa.18713.0_g_at / expression level of D86609_s_at / expression level of TC19211_at / expression level of TC21156_at / expression level of TC24045_at / expression level of TC30384_g_at / expression level of TC3225_at / expression level of TC38978_at / expression level of TC39080_at / expression level of TC17495_at: unit not given here
# Experimental: D5 or primary T cells from NFAT1−/− or wild type DO11.10 transgenic mice were stimulated for 2, 6 or 16 hours with 500 nM ionomycin, 20 nM PMA plus 500 nM ionomycin, or 1 μM CsA plus 500 nM ionomycin. Total RNA was isolated with an RNeasy kit (QIAGEN). Ten μg of total RNA was quantitatively amplified and biotin-labeled as described (Byrne et al., (2000) “Preparation of mRNA for Expression Monitoring” Current Protocols in Molecular Biology (John Wiley & Sons, Inc.) pp. 22.22.21-22.22.13). […] Chips were washed, stained with SA-PE and read using an Affymetrix GeneChip® scanner and accompanying gene expression software. Labeled bacterial RNAs of known concentration were spiked into each chip hybridization mix to generate an internal standard curve, allowing normalization between chips and conversion of raw hybridization intensity values to mRNA frequency (mRNA molecules per million).
# Nucleic acid expression profiles were obtained from a T cell line at multiple time points and in various T cell states. The D5 Th1 T cell line was stimulated in three different ways: 1) ionomycin alone (e.g., causing the regulatory factor NFAT to move from the cytoplasm to the nucleus); 2) ionomycin+PMA (e.g., causing both NFAT and the transcription factor AP-1 to enter the nucleus); 3) ionomycin +cyclosporin A (CsA) (e.g., preventing NFAT from entering the nucleus in response to ionomycin). […] Cells were stimulated for 0, 2, 6, and 16 hours. […] The experiment was done twice (i.e., with two replicates, Rep. 1 and Rep. 2). Nucleic acid expression at the 2, 6 and 16 hour timepoints was compared to nucleic acid expression at 0 hours.
# The nucleic acid expression data was stored in a computer database. A database query was used to identify all nucleic acids that were deemed “increasing” or “decreasing” in response to ionomycin (relative to the 0 hour sample) in at least one timepoint in Rep. 1, and the nucleic acids were also deemed “increasing” or “decreasing” in response to ionomycin in Rep. 2.
# To test the hypothesis that NFAT in the absence of AP-1 and NFKB induced a genetic program of anergy, genes induced in D5 T cells by ionomycin stimulation alone were evaluated (FIGS. 1, 2 and 6). Samples from D5 cells stimulated with ionomycin plus CsA, which blocks anergy induction, and ionomycin plus PMA, which pharmacologically mimic complete stimulation through the TCR and CD28 were included. RNA was prepared from unstimulated D5 T cells and from cells stimulated for 2, 6 or 16 h under these three conditions, and gene transcription profiles were evaluated using Affymetrix oligonucleotide arrays (FIG. 6A).
smiles,measurement,setting,value
"C[C@H](CCC(=O)O)C[C@H](C)C[C@H](C)C(=O)/C=C(\O)[C@H](C)C[C@H](C)C/C=C/[C@@H](C)[C@@H](O)[C@@H](C)[C@@H](O)C[C@@H]1CC[C@@](C)([C@H]2CC[C@@](C)([C@@H](C)O)O2)O1 [Ionomycin, ionomycin]",expression level of D86609_s_at,2 h,34
same,expression level of ET63436_at,2 h,113
same,expression level of MIP1-B_at,2 h,110.5
same,expression level of Msa.11439.0_s_at,2 h,19
same,expression level of Msa.15983.0_f_at,2 h,44
same,expression level of Msa.1669.0_f_at,2 h,27
same,expression level of Msa.18713.0_g_at,2 h,83
same,expression level of Msa.21745.0_s_at,2 h,8
same,expression level of TC3225_at,2 h,34
same,expression level of TC14671_g_at,2 h,7
same,expression level of TC16364_at,2 h,4
same,expression level of TC16828_at,2 h,4
same,expression level of TC17132_at,2 h,121
same,expression level of TC17495_at,2 h,9
same,expression level of TC17558_at,2 h,41
same,expression level of TC18221_at,2 h,9
same,expression level of TC19211_at,2 h,48
same,expression level of TC21156_at,2 h,20
same,expression level of TC23346_s_at,2 h,5
same,expression level of TC23450_s_at,2 h,16
same,expression level of TC24045_at,2 h,15
same,expression level of TC24067_at,2 h,9
same,expression level of TC25965_at,2 h,42
same,expression level of TC27326_g_at,2 h,3
same,expression level of TC29889_at,2 h,11
same,expression level of TC30384_g_at,2 h,39
same,expression level of TC30935_at,2 h,93
same,expression level of TC30992_s_at,2 h,28
same,expression level of TC31681_at,2 h,56
same,expression level of TC33206_at,2 h,45
same,expression level of TC33833_at,2 h,23
same,expression level of TC34186_at,2 h,40
same,expression level of TC36089_at,2 h,156
same,expression level of TC36583_at,2 h,29
same,expression level of TC37631_at,2 h,18
same,expression level of TC38094_at,2 h,18
same,expression level of TC38978_at,2 h,6
same,expression level of TC39012_at,2 h,64
same,expression level of TC39080_at,2 h,14
same,expression level of TC39762_at,2 h,16
same,expression level of TC40487_g_at,2 h,16
same,expression level of TC41014_at,2 h,23
same,expression level of U44731_s_at,2 h,69
same,expression level of X67914_s_at,2 h,53
same,expression level of Z31202_s_at,2 h,10
same,expression level of aa144045_s_at,2 h,24
same,expression level of aa174748_at,2 h,31
same,expression level of c81206_rc_at,2 h,15
same,expression level of k00083_s_at,2 h,41
same,expression level of x12531_s_at,2 h,68
same,expression level of D86609_s_at,6 h,34
same,expression level of ET63436_at,6 h,60
same,expression level of MIP1-B_at,6 h,85.5
same,expression level of Msa.11439.0_s_at,6 h,22
same,expression level of Msa.15983.0_f_at,6 h,60
same,expression level of Msa.1669.0_f_at,6 h,32
same,expression level of Msa.18713.0_g_at,6 h,58
same,expression level of Msa.21745.0_s_at,6 h,12
same,expression level of TC3225_at,6 h,22
same,expression level of TC14671_g_at,6 h,15
same,expression level of TC16364_at,6 h,5
same,expression level of TC16828_at,6 h,17
same,expression level of TC17132_at,6 h,155
same,expression level of TC17495_at,6 h,12
same,expression level of TC17558_at,6 h,57
same,expression level of TC18221_at,6 h,17
same,expression level of TC19211_at,6 h,22
same,expression level of TC21156_at,6 h,25
same,expression level of TC23346_s_at,6 h,12
same,expression level of TC23450_s_at,6 h,21
same,expression level of TC24045_at,6 h,15
same,expression level of TC24067_at,6 h,19
same,expression level of TC25965_at,6 h,35
same,expression level of TC27326_g_at,6 h,4
same,expression level of TC29889_at,6 h,10
same,expression level of TC30384_g_at,6 h,29
same,expression level of TC30935_at,6 h,60
same,expression level of TC30992_s_at,6 h,9
same,expression level of TC31681_at,6 h,31
same,expression level of TC33206_at,6 h,19
same,expression level of TC33833_at,6 h,23
same,expression level of TC34186_at,6 h,38
same,expression level of TC36089_at,6 h,149
same,expression level of TC36583_at,6 h,26
same,expression level of TC37631_at,6 h,12
same,expression level of TC38094_at,6 h,10
same,expression level of TC38978_at,6 h,3
same,expression level of TC39012_at,6 h,42
same,expression level of TC39080_at,6 h,11
same,expression level of TC39762_at,6 h,15
same,expression level of TC40487_g_at,6 h,8
same,expression level of TC41014_at,6 h,18
same,expression level of U44731_s_at,6 h,54
same,expression level of X67914_s_at,6 h,39
same,expression level of Z31202_s_at,6 h,17
same,expression level of aa144045_s_at,6 h,17
same,expression level of aa174748_at,6 h,19
same,expression level of c81206_rc_at,6 h,13
same,expression level of k00083_s_at,6 h,45
same,expression level of x12531_s_at,6 h,49
same,expression level of D86609_s_at,16 h,45
same,expression level of ET63436_at,16 h,107
same,expression level of MIP1-B_at,16 h,97.5
same,expression level of Msa.11439.0_s_at,16 h,36
same,expression level of Msa.15983.0_f_at,16 h,56
same,expression level of Msa.1669.0_f_at,16 h,50
same,expression level of Msa.18713.0_g_at,16 h,49
same,expression level of Msa.21745.0_s_at,16 h,12
same,expression level of TC3225_at,16 h,37
same,expression level of TC14671_g_at,16 h,30
same,expression level of TC16364_at,16 h,10
same,expression level of TC16828_at,16 h,31
same,expression level of TC17132_at,16 h,126
same,expression level of TC17495_at,16 h,12
same,expression level of TC17558_at,16 h,98
same,expression level of TC18221_at,16 h,25
same,expression level of TC19211_at,16 h,22
same,expression level of TC21156_at,16 h,31
same,expression level of TC23346_s_at,16 h,13
same,expression level of TC23450_s_at,16 h,22
same,expression level of TC24045_at,16 h,25
same,expression level of TC24067_at,16 h,31
same,expression level of TC25965_at,16 h,50
same,expression level of TC27326_g_at,16 h,5
same,expression level of TC29889_at,16 h,13
same,expression level of TC30384_g_at,16 h,53
same,expression level of TC30935_at,16 h,86
same,expression level of TC30992_s_at,16 h,12
same,expression level of TC31681_at,16 h,22
same,expression level of TC33206_at,16 h,12
same,expression level of TC33833_at,16 h,23
same,expression level of TC34186_at,16 h,50
same,expression level of TC36089_at,16 h,165
same,expression level of TC36583_at,16 h,31
same,expression level of TC37631_at,16 h,29
same,expression level of TC38094_at,16 h,16
same,expression level of TC38978_at,16 h,8
same,expression level of TC39012_at,16 h,77
same,expression level of TC39080_at,16 h,24
same,expression level of TC39762_at,16 h,37
same,expression level of TC40487_g_at,16 h,13
same,expression level of TC41014_at,16 h,33
same,expression level of U44731_s_at,16 h,25
same,expression level of X67914_s_at,16 h,36
same,expression level of Z31202_s_at,16 h,45
same,expression level of aa144045_s_at,16 h,22
same,expression level of aa174748_at,16 h,21
same,expression level of c81206_rc_at,16 h,39
same,expression level of k00083_s_at,16 h,72
same,expression level of x12531_s_at,16 h,84

# — patent US20030064380A1, “Anergy-regulated molecules” (The Center For Blood Research, Inc., priority 2001, published 2003)
